Drawing on patent US6743817B2, “Substituted fused pyrroleimines and pyrazoleimines” (Neurogen Corporation, priority 2000, dated 2004), this text covers melting point for 1 molecule.

Turning to `COc1ccc(NC(=O)c2n[nH]c3c2C(=NC(C)C)CCC3)cc1F`, the melting point is 259 to 261 °C (dec.).
